Measured values taken from publication PMC11586995, “Screening and Characterization of Sialic Acid-Binding Variable Lymphocyte Receptors from Hagfish” (BioTech, 2024).
“Also recorded” adds a separate entry of the source.

System: ccombodies 2D8, 5G11, 6D2, and 4A1
Test: Competitive ELISA of monosaccharide haptens against ccombody binding to BSA-CC-Neu5Ac
Parameters: species or system Eptatretus burgeri
Conditions: hapten 50 to 0.39 mM, all four candidates
Experimental: ELISA was carried out according to the method of Lazarte et al., with some modifications. Screening for sialic acid-binding ccombodies was carried out by coating 100 μL of a 300 ng/well BSA-CC-Neu5Ac glycoconjugate onto high-binding 96-well ELISA plates (Corning, Glendale, AZ, USA), along with BSA only (without CC) as a negative control. Plates were left standing overnight at 4 °C, after which they were washed three times with 1X TBST (10 mM Tris-HCl, 150 mM NaCl, and 0.5% Tween) to remove unbound antigen. Plates were blocked for 30 min with blocking buffer comprising 5% skimmed milk in 1× TBST at room temperature, then washed once with 1X TBST. Ccombody supernatants from HEK293F cells were then added onto the plates, incubated for 1 h 30 min, followed by washing three times with 1X TBST. Antigen bound ccombodies were detected with mouse anti-VLRB antibody (11G5) in blocking buffer by incubation for 1 h, followed by washing three times to remove unbound 11G5. Finally, bound 11G5 antibodies were detected by incubating for 1 h with HRP-conjugated goat anti-mouse IgG (1:5000 v/v in blocking buffer), then washed four times. Binding was quantified by the addition of 100 μL developing buffer composed of 42 mM 3,3′,5,5′-tetramethylbenzidine and 1% H2O2, then color development for 30 min at room temperature. The reaction was stopped by adding 50 μL of 2 M H2SO4. The absorbance was then read at 450 nm using an xMark (BIO-RAD, Hercules, CA USA) microplate reader. Competitive inhibition was determined through ELISA as presented earlier, with some modifications. Optimal subsaturating dilutions of ccombody-culture supernatants were used based on the preliminary antibody titration data. Competitive inhibitors, two-fold serially diluted (50 to 0.39 mM), were mixed with a constant amount of ccombody supernatant diluted in 5% skimmed milk in 1X TBST, then incubated for 1 h at room temperature. Next, 100 μL of the mixture was subsequently transferred into another 96-well ELISA plate containing a constant amount of antigen (500 ng/well) which was pre-blocked with 5% skimmed milk in 1X TBST. Antigen-bound ccombodies were detected by 11G5 and HRP-conjugated goat anti-mouse IgG. The normalized and background-corrected OD450 values were plotted against the ligand concentration, and the half-maximal inhibitory concentration (IC50) was computed by curve fitting using the Four Parameter Logistic (4PL) Curve Calculator [27]. Values are expressed as the mean of three determinations.

| SMILES | Inhibition of ccombody binding by free hapten |
| --- | --- |
| CC(=O)N[C@@H]1[C@@H](O)[C@@H](O)[C@@H](CO)O[C@@H]1O [N-acetylgalactosamine] | No significant inhibition |
| CC(=O)N[C@@H]1[C@@H](O)[C@H](O)[C@@H](CO)O[C@H]1O [N-acetylglucosamine] | No significant inhibition |
| CC(=O)N[C@H]1[C@H]([C@H](O)[C@H](O)CO)OC(O)(C(=O)O)C[C@@H]1O (stereo partly drawn) [Neu5Ac, N-acetylneuraminic acid] | strong inhibition; also recorded: strong inhibitory effects |
| O=C[C@H](O)[C@@H](O)[C@@H](O)[C@H](O)CO [galactose] | No significant inhibition |
| OC[C@H]1OC(O)[C@H](O)[C@@H](O)[C@@H]1O (stereo partly drawn) [glucose] | No significant inhibition |
| OC[C@H]1OC(O)[C@@H](O)[C@@H](O)[C@@H]1O (stereo partly drawn) [mannose] | No significant inhibition |
